Each block holds one molecule with its values, some of them ahead of it.
Experiments:
P. aeruginosa = experiment: microbe, parasite or virus in culture; settings: agent alone
Experimental: (§1) FICs are performed by checkerboard titrations of peptides in one dimension of a microtiter plate, and of antibiotics in the other dimension, for example. The FIC is calculated by looking at the impact of one antibiotic on the MIC of the other and vice versa. […] Preferably, an FIC of less than 0.5 is obtained for synergism. As used herein, FIC can be determined as follows: [formula]
(§2) Synergism is identified as an FIC of about ≦0.5.

A. calcoaceticus = experiment: Synergy of peptide and antibiotic, MIC and FIC (checkerboard); assay type: cell-based; settings: Acinetobacter calcoaceticus, agent alone
Experimental: as §1, §2

E. cloacae = experiment: as above; assay type: cell-based; settings: Enterobacter cloacae, agent alone
Experimental: as §1, §2

X. maltophila = experiment: as above; assay type: cell-based; settings: agent alone
Experimental: as §1, §2

[1] = Pseudomonas aeruginosa, P. aeruginosa isolate 23, strain ATCC 27853
[2] = Pseudomonas aeruginosa, P. aeruginosa isolate 24, strain 34
[3] = Pseudomonas aeruginosa, P. aeruginosa isolate 25, strain 923-1
[4] = Pseudomonas aeruginosa, P. aeruginosa isolate 26, strain 3101
[5] = Pseudomonas aeruginosa, P. aeruginosa isolate 27, strain 14644
[6] = Pseudomonas aeruginosa, P. aeruginosa isolate 28, strain 15036
[7] = Pseudomonas aeruginosa, P. aeruginosa isolate 29, strain 15545
[8] = Pseudomonas aeruginosa, P. aeruginosa isolate 30, strain B3999-1
[9] = A. calcoaceticus isolate 1, strain ATCC 23055
[10] = A. calcoaceticus isolate 4, strain 28
[11] = A. calcoaceticus isolate 5, strain 8220
[12] = A. calcoaceticus isolate 6, strain 8221
[13] = A. calcoaceticus isolate 7, strain 8222
[14] = A. calcoaceticus isolate 8, strain 8223
[15] = A. calcoaceticus isolate 9, strain 8224
[16] = A. calcoaceticus isolate 10, strain 8225
[17] = A. calcoaceticus isolate 11, strain 8226
[18] = A. calcoaceticus isolate 2, strain 23
[19] = E. cloacae isolate 12, strain ATCC 13047
[20] = E. cloacae isolate 13, strain 37-1
[21] = E. cloacae isolate 14, strain 938-2
[22] = E. cloacae isolate 15, strain B5546
[23] = E. cloacae isolate 16, strain R4148
[24] = E. cloacae isolate 17, strain R4148-2
[25] = E. cloacae isolate 18, strain 3077
[26] = E. cloacae isolate 19, strain 3356
[27] = E. cloacae isolate 20, strain 14269
[28] = E. cloacae isolate 21, strain 14661
[29] = E. cloacae isolate 22, strain 18801
[30] = Pseudomonas aeruginosa, P. aeruginosa isolate 31, strain U7688-1
[31] = Pseudomonas aeruginosa, P. aeruginosa isolate 32, strain W2897-1
[32] = X. maltophila isolate 36, strain 16
[33] = X. maltophila isolate 37, strain 3095
[34] = X. maltophila isolate 38, strain 7901
[35] = X. maltophila isolate 39, strain B3110.1
[36] = X. maltophila isolate 40, strain R1302-1
[37] = X. maltophila isolate 41, strain R4230
[38] = X. maltophila isolate 42, strain TF29-1
[39] = X. maltophila isolate 43, strain TF29-2
[40] = X. maltophila isolate 44, strain W6896-2
[41] = X. maltophila isolate 45, strain W11291
[42] = A. calcoaceticus isolate 3, strain 27
[43] = X. maltophila isolate 35, strain 6

Compound: C[C@@H](O)[C@H]1C(=O)N2C(C(=O)O)=C(SCCN=CN)C[C@H]12 [Imipenem]
MIC (P. aeruginosa; [1]): 8 µg/mL
MIC (P. aeruginosa; [2]): 512 µg/mL
MIC (P. aeruginosa; [3]): 4 µg/mL
MIC (P. aeruginosa; [4]): 8 µg/mL
MIC (P. aeruginosa; [5]): 16 µg/mL
MIC (P. aeruginosa; [6]): 16 µg/mL
MIC (P. aeruginosa; [7]): 256 µg/mL
MIC (P. aeruginosa; [8]): 256 µg/mL
MIC (A. calcoaceticus; [9]): 2 µg/mL
MIC (A. calcoaceticus; [10]): 16 µg/mL
MIC (A. calcoaceticus; [11]): 2 µg/mL
MIC (A. calcoaceticus; [12]): 1 µg/mL
MIC (A. calcoaceticus; [13]): 4 µg/mL
MIC (A. calcoaceticus; [14]): 2 µg/mL
MIC (A. calcoaceticus; [15]): 2 µg/mL
MIC (A. calcoaceticus; [16]): 2 µg/mL
MIC (A. calcoaceticus; [17]): 4 µg/mL
MIC (A. calcoaceticus; [18]): 512 µg/mL
MIC (E. cloacae; [19]): 1 µg/mL
MIC (E. cloacae; [20]): 2 µg/mL
MIC (E. cloacae; [21]): 4 µg/mL
MIC (E. cloacae; [22]): 2 µg/mL
MIC (E. cloacae; [23]): 4 µg/mL
MIC (E. cloacae; [24]): 2 µg/mL
MIC (E. cloacae; [25]): 4 µg/mL
MIC (E. cloacae; [26]): 4 µg/mL
MIC (E. cloacae; [27]): 4 µg/mL
MIC (E. cloacae; [28]): 2 µg/mL
MIC (E. cloacae; [29]): 2 µg/mL

MIC (P. aeruginosa; [2]): 1020 µg/mL
MIC (P. aeruginosa; [3]): 64 µg/mL
MIC (P. aeruginosa; [4]): 64 µg/mL
MIC (P. aeruginosa; [5]): 512 µg/mL
MIC (P. aeruginosa; [6]): 1020 µg/mL
MIC (P. aeruginosa; [7]): 512 µg/mL
MIC (P. aeruginosa; [8]): 512 µg/mL
MIC (P. aeruginosa; [30]): 512 µg/mL
MIC (P. aeruginosa; [31]): 64 µg/mL
MIC (X. maltophila; X. maltophila isolate 34, strain ATCC 13637): 1020 µg/mL
MIC (X. maltophila; [32]): 1020 µg/mL
MIC (X. maltophila; [33]): 512 µg/mL
MIC (X. maltophila; [34]): 512 µg/mL
MIC (X. maltophila; [35]): 512 µg/mL
MIC (X. maltophila; [36]): 512 µg/mL
MIC (X. maltophila; [37]): 1020 µg/mL
MIC (X. maltophila; [38]): 1020 µg/mL
MIC (X. maltophila; [39]): 1020 µg/mL
MIC (X. maltophila; [40]): 1020 µg/mL
MIC (X. maltophila; [41]): 512 µg/mL
MIC (A. calcoaceticus; [9]): 8 µg/mL
MIC (A. calcoaceticus; [42]): 16 µg/mL
MIC (A. calcoaceticus; [10]): 4 µg/mL
MIC (A. calcoaceticus; [11]): 16 µg/mL
MIC (A. calcoaceticus; [12]): 16 µg/mL
MIC (A. calcoaceticus; [13]): 32 µg/mL
MIC (A. calcoaceticus; [15]): 256 µg/mL
MIC (A. calcoaceticus; [16]): 32 µg/mL
MIC (A. calcoaceticus; [17]): 32 µg/mL
MIC (A. calcoaceticus; [18]): 1020 µg/mL
MIC (E. cloacae; [19]): 8 µg/mL
MIC (E. cloacae; [20]): 4 µg/mL
MIC (E. cloacae; [21]): 8 µg/mL
MIC (E. cloacae; [22]): 8 µg/mL
MIC (E. cloacae; [23]): 1020 µg/mL
MIC (E. cloacae; [24]): 1020 µg/mL
MIC (E. cloacae; [25]): 8 µg/mL
MIC (E. cloacae; [26]): 64 µg/mL
MIC (E. cloacae; [27]): 1020 µg/mL
MIC (E. cloacae; [28]): 16 µg/mL
MIC (E. cloacae; [29]): 4 µg/mL
Compound: CCN1CCN(C(=O)N[C@@H](C(=O)N[C@@H]2C(=O)N3[C@@H]2SC(C)(C)[C@@H]3C(=O)O)c2ccccc2)C(=O)C1=O [Piperacillin]

Compound: NC[C@H]1O[C@H](O[C@H]2[C@H](O)[C@@H](O[C@H]3O[C@H](CO)[C@@H](O)[C@H](N)[C@H]3O)[C@H](N)C[C@@H]2N)[C@H](N)C[C@@H]1O [Tobramycin]
MIC (P. aeruginosa; [1]): 1 µg/mL
MIC (P. aeruginosa; [2]): 64 µg/mL
MIC (P. aeruginosa; [3]): 1 µg/mL
MIC (P. aeruginosa; [4]): 1 µg/mL
MIC (P. aeruginosa; [5]): 2 µg/mL
MIC (P. aeruginosa; [6]): 1 µg/mL
MIC (P. aeruginosa; [7]): 2 µg/mL
MIC (P. aeruginosa; [8]): 2 µg/mL
MIC (P. aeruginosa; [30]): 1 µg/mL
MIC (P. aeruginosa; [31]): 1 µg/mL
MIC (P. aeruginosa; Pseudomonas aeruginosa, P. aeruginosa isolate 33, strain W5483-2): 1 µg/mL
MIC (P. aeruginosa; Table 33, P. aeruginosa isolate 23, strain ATCC 27853): 1 μg · mL^1
MIC (P. aeruginosa; Table 33, P. aeruginosa isolate 24, strain 34): 64 μg · mL^1
MIC (P. aeruginosa; Table 33, P. aeruginosa isolate 25, strain 923-1): 1 μg · mL^1
MIC (P. aeruginosa; Table 33, P. aeruginosa isolate 26, strain 3101): 1 μg · mL^1
MIC (P. aeruginosa; Table 33, P. aeruginosa isolate 27, strain 14644): 1 μg · mL^1
MIC (P. aeruginosa; Table 33, P. aeruginosa isolate 28, strain 15036): 1 μg · mL^1
MIC (P. aeruginosa; Table 33, P. aeruginosa isolate 29, strain 15545): 2 μg · mL^1
MIC (P. aeruginosa; Table 33, P. aeruginosa isolate 30, strain B3999-1): 1 μg · mL^1
MIC (P. aeruginosa; Table 33, P. aeruginosa isolate 31, strain U7688-1): 2 μg · mL^1
MIC (P. aeruginosa; Table 33, P. aeruginosa isolate 32, strain W2897-1): 1 μg · mL^1
MIC (P. aeruginosa; Table 33, P. aeruginosa isolate 33, strain W5483-2): 2 μg · mL^1
MIC (X. maltophila; [43]): 4 µg/mL
MIC (X. maltophila; [33]): 32 µg/mL
MIC (X. maltophila; [34]): 32 µg/mL
MIC (X. maltophila; [35]): 32 µg/mL
MIC (X. maltophila; [36]): 32 µg/mL
MIC (X. maltophila; [37]): 16 µg/mL
MIC (X. maltophila; [38]): 2 µg/mL
MIC (X. maltophila; [39]): 2 µg/mL
MIC (X. maltophila; [40]): 16 µg/mL
MIC (A. calcoaceticus; [9]): 4 µg/mL
MIC (A. calcoaceticus; [42]): 1 µg/mL
MIC (A. calcoaceticus; [10]): 128 µg/mL
MIC (A. calcoaceticus; [11]): 4 µg/mL
MIC (A. calcoaceticus; [12]): 4 µg/mL
MIC (A. calcoaceticus; [13]): 4 µg/mL
MIC (A. calcoaceticus; [14]): 4 µg/mL
MIC (A. calcoaceticus; [15]): 4 µg/mL
MIC (A. calcoaceticus; [16]): 4 µg/mL
MIC (A. calcoaceticus; [17]): 4 µg/mL
MIC (E. cloacae; [19]): 1 µg/mL
MIC (E. cloacae; [20]): 1 µg/mL
MIC (E. cloacae; [21]): 2 µg/mL
MIC (E. cloacae; [22]): 2 µg/mL
MIC (E. cloacae; [23]): 1 µg/mL
MIC (E. cloacae; [24]): 1 µg/mL
MIC (E. cloacae; [25]): 1 µg/mL
MIC (E. cloacae; [26]): 1 µg/mL
MIC (E. cloacae; [27]): 1 µg/mL
MIC (E. cloacae; [28]): 1 µg/mL
MIC (E. cloacae; [29]): 1 µg/mL

MIC (P. aeruginosa; [5]): 32 µg/mL
MIC (P. aeruginosa; [6]): 16 µg/mL
MIC (X. maltophila; [43]): 4 µg/mL
MIC (X. maltophila; [32]): 8 µg/mL
MIC (X. maltophila; [33]): 16 µg/mL
MIC (X. maltophila; [34]): 32 µg/mL
MIC (X. maltophila; [36]): 4 µg/mL
MIC (X. maltophila; [37]): 4 µg/mL
MIC (X. maltophila; [38]): 8 µg/mL
MIC (X. maltophila; [39]): 8 µg/mL
MIC (X. maltophila; [40]): 4 µg/mL
MIC (X. maltophila; [41]): 4 µg/mL
MIC (A. calcoaceticus; [42]): 8 µg/mL
MIC (A. calcoaceticus; [10]): 8 µg/mL
Compound: O=C(O)c1cn(C2CC2)c2cc(N3CCNCC3)c(F)cc2c1=O [Ciprofloxacin]

Source: patent US6465429B1, “Antimicrobial cationic peptides” (priority 1995, dated 2002)
